Experiments:
Assay type in all cases: functional, cell-based
MCF7 = experiment: Cytotoxicity against human MCF7 cells assessed as reduction in cell viability measured after 48 hrs by MTT assay; conditions: MCF7, 48 h
PC-3 = experiment: Cytotoxicity against human PC-3 cells assessed as reduction in cell viability measured after 48 hrs by MTT assay; conditions: PC-3, 48 h
A2780 = experiment: Cytotoxicity against human A2780 cells assessed as reduction in cell viability measured after 48 hrs by MTT assay; conditions: A2780, 48 h

| SMILES | IC50 (MCF7) [µM] | IC50 (PC-3) [µM] | IC50 (A2780) [µM] |
| --- | --- | --- | --- |
| Oc1c(Br)cc(Cl)cc1/C=N/CCc1ccccn1 | 48 | 83 | 48 |
| Oc1ccc(Br)cc1/C=N/CCc1ccccn1 | 42 | 108 | 50 |
| Oc1ccccc1/C=N/CCc1ccccn1 | > 100 | > 100 | > 100 |
| Oc1ccc(Cl)cc1/C=N/CCc1ccccn1 | 45 | 110 | 51 |

Reference: ChEMBL document CHEMBL4825727, “Cytotoxic oxidovanadium(IV) complexes of tridentate halogen-substituted Schiff bases: First dinuclear V(IV) complexes with O → VIV = O → VIV = O core” (Bioorg Med Chem Lett, 2021)
